Experimental data from US11007141B2, “Oral preparation and preparation method thereof” (GUANGZHOU XIANGXUE PHARMACEUTICAL CO., LTD., priority 2015, dated 2021).
Like-named read-outs stand apart in the source and are kept apart here.

What was measured:
[1] = Maximum solubility of cyclodextrins in hydrochloric acid solution pH 1.2
Protocol: (§1) Different kinds of cyclodextrins were dissolved with an aqueous hydrochloric acid solution (0.1N) having a pH value of 1.2 to determine the saturation concentration of each cyclodextrin.
(1) A certain amount of α-, β- and γ-cyclodextrin were weighed and added into a 10 mL volumetric flask, then an aqueous hydrochloric acid solution of pH 1.2 was gradually added until reaching the scale of the flask, and the flask was shocked and ultrasound was performed to dissolve the cyclodextrin. The maximum amount of cyclodextrin capable of being dissolved in a 10 mL solution was recorded.

[2] = Concentration of drug-containing HP-β-CD preparation after filtration (HPLC); conditions: 21 mg/ml drug-containing preparation in 30% HP-β-CD, pH 1.2; API not completely dissolved after 30 minutes ultrasound; 0.45 μm PES filter
[3] = Tablet stability at high temperature (60° C.), high humidity (92.5% RH), −20° C.; format: physicochemical
[4] = API 0.5 mg/ml, 20% γ-CD, molar ratio 174:1
Protocol: as §1
A certain amount of API was weighed and added into an appropriate volume of the cyclodextrin solution. […] The clear solution after the pH adjustment was left to stand to observe the state of the solution after standing for 2 hours, 4 hours, and 24 hours.

[5] = for Water (water-addition-precipitating critical point of drug solution): 100 mg drug; for dissolution in aqueous solution containing surfactant: magnetic stirring 1 hour
Protocol: In this study, a dissolution test was performed using a single non-aqueous solvent ethanol.
In this study, a dissolution test was also performed using composite solvents composed of PEG400 or PEG200 and absolute ethanol, respectively.
In addition, in this study, dissolution tests were also performed using a single non-aqueous solvent propylene glycol, or a composite solvent composed of propylene glycol and other non-aqueous solvent.
Next, the dilution stability of these two solvent systems was tested.

For OC[C@H]1O[C@@H]2O[C@H]3[C@H](O)[C@@H](O)[C@@H](O[C@H]4[C@H](O)[C@@H](O)[C@@H](O[C@H]5[C@H](O)[C@@H](O)[C@@H](O[C@H]6[C@H](O)[C@@H](O)[C@@H](O[C@H]7[C@H](O)[C@@H](O)[C@@H](O[C@H]1[C@H](O)[C@H]2O)O[C@@H]7CO)O[C@@H]6CO)O[C@@H]5CO)O[C@@H]4CO)O[C@@H]3CO [α-cyclodextrin], the maximum solubility ([1]; aqueous hydrochloric acid solution of a pH value of 1.2) was “about 8%”.

With OC[C@H]1O[C@@H]2O[C@H]3[C@H](O)[C@@H](O)[C@@H](O[C@H]4[C@H](O)[C@@H](O)[C@@H](O[C@H]5[C@H](O)[C@@H](O)[C@@H](O[C@H]6[C@H](O)[C@@H](O)[C@@H](O[C@H]7[C@H](O)[C@@H](O)[C@@H](O[C@H]8[C@H](O)[C@@H](O)[C@@H](O[C@H]1[C@H](O)[C@H]2O)O[C@@H]8CO)O[C@@H]7CO)O[C@@H]6CO)O[C@@H]5CO)O[C@@H]4CO)O[C@@H]3CO [β-cyclodextrin] the maximum solubility [1] was “about 1%”.

With O=C(Cc1ccc(-c2ccc(N3CCOCC3)cc2)cn1)NCc1cccc(F)c1.O=S(=O)(O)c1ccccc1 [KX2-361.benzene sulfonate] the “concentration after filtration, calibrated with HPLC” value [2] was 20660 µg/mL, the “Total impurity (%)” value ([3]; 0 day) was 0.33% and the “Total impurity (%)” value ([3]; High humidity, 20 days) was 0.31%. The “Total impurity (%)” value ([3]; High temperature, 10 days) was 0.32%, the “Total impurity (%)” value ([3]; High temperature, 20 days) was 0.32% and the “Total impurity (%)” value ([3]; −20° C., 20 days) was 0.36%. The “Solution phenomenon when the pH value was adjusted to 4” value [4] was “turbid”, the “Water (water-addition-precipitating critical point of drug solution)” value (shortened to “Water”) ([5]; Cremophor EL 17.1 g, 40° C.) was 6.7 g and the “Water” value ([5]; Solutolo HS-15 10 g, 40° C.) was 4.5 g. The “Water” value ([5]; Solutolo HS-15 15 g, 28° C.) was 8.7 g, the “Water” value ([5]; Solutolo HS-15 20 g, 28° C.) was 12.6 g and the “dissolution in aqueous solution containing surfactant” value ([5]; drug containing 10 mg of KX2-361 in 0.6% Poloxamer 188 aqueous solution (50 ml)) was “failed to completely dissolve”. For the same molecule, the “dissolution in aqueous solution containing surfactant” value ([5]; drug containing 10 mg of KX2-361 in 2% Tween80 aqueous solution (50 ml)) was “failed to completely dissolve”, the “dissolution in aqueous solution containing surfactant” value ([5]; drug containing 10 mg of KX2-361 in 8% Solutol HS15 aqueous solution (50 ml)) was “failed to completely dissolve” and the “dissolution in aqueous solution containing surfactant” value ([5]; drug containing 10 mg of KX2-361 in 10% Cremophor EL aqueous solution (50 ml)) was “failed to completely dissolve”. For the same molecule, the “dissolution in propylene glycol” value ([5]; drug containing 50 mg of KX2-361 in 20 ml of propylene glycol alone, a trace of small particles still present) was “could substantially be dissolved” and the solubility in ethanol ([5]; ethanol (95% v/v)) was 1120 to 2380 µg/mL.

With OC[C@H]1O[C@@H]2O[C@H]3[C@H](O)[C@@H](O)[C@@H](O[C@H]4[C@H](O)[C@@H](O)[C@@H](O[C@H]5[C@H](O)[C@@H](O)[C@@H](O[C@H]6[C@H](O)[C@@H](O)[C@@H](O[C@H]7[C@H](O)[C@@H](O)[C@@H](O[C@H]8[C@H](O)[C@@H](O)[C@@H](O[C@H]9[C@H](O)[C@@H](O)[C@@H](O[C@H]1[C@H](O)[C@H]2O)O[C@@H]9CO)O[C@@H]8CO)O[C@@H]7CO)O[C@@H]6CO)O[C@@H]5CO)O[C@@H]4CO)O[C@@H]3CO [γ-cyclodextrin] the maximum solubility [1] was “about 20%”.
